PubChem BioAssay AID248 (DTP/NCI, 2004)
Where “and” joins values, the source holds several entries; their conditions need not be identical. Equal entries are not always repeated. Inconclusive results and toxic doses are left out. Rule as the data show it: active = T/C of 150% or more; inactive = T/C below 125%.

Tested on: L1210 leukemia ip in BDF1 mice, survival T/C
Assay: NCI In Vivo Anticancer Drug Screen. Data for tumor model L1210 Leukemia (intraperitoneal) in B6D2F1 (BDF1) mice
Settings: endpoint: mean survival time, higher = longer survival
Procedure, shortened: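 Tumor cells were implanted, animals were treated, and survival was followed. The result divides the treated measurement by the vehicle-control measurement.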

[1] = dose: 100.0 mg/kg/injection, schedule: Q01DX001 (ip), vehicle: saline
[2] = dose: 200.0 mg/kg/injection, schedule: Q01DX001 (ip), vehicle: saline
[3] = dose: 100.0 mg/kg/injection, schedule: Q04DX003 (ip), vehicle: Klucel (hydroxypropylcellulose) (HPC)
[4] = dose: 200.0 mg/kg/injection, schedule: Q04DX003 (ip), vehicle: Klucel (hydroxypropylcellulose) (HPC)
[5] = dose: 400.0 mg/kg/injection, schedule: Q04DX003 (ip), vehicle: Klucel (hydroxypropylcellulose) (HPC)
[6] = dose: 100.0 mg/kg/injection, schedule: Q04DX003 (ip), vehicle: saline with Tween-80
[7] = dose: 100.0 mg/kg/injection, schedule: Q04DX003 (ip), vehicle: saline
[8] = dose: 200.0 mg/kg/injection, schedule: Q04DX003 (ip), vehicle: saline
[9] = dose: 200.0 mg/kg/injection, schedule: Q04DX003 (ip), vehicle: saline with Tween-80
[10] = dose: 400.0 mg/kg/injection, schedule: Q04DX003 (ip), vehicle: saline with Tween-80
[11] = dose: 25.0 mg/kg/injection, schedule: Q04DX002 (ip), vehicle: Klucel (hydroxypropylcellulose) (HPC)
[12] = dose: 25.0 mg/kg/injection, schedule: Q04DX003 (ip), vehicle: Klucel (hydroxypropylcellulose) (HPC)
[13] = dose: 50.0 mg/kg/injection, schedule: Q04DX002 (ip), vehicle: Klucel (hydroxypropylcellulose) (HPC)
[14] = dose: 50.0 mg/kg/injection, schedule: Q04DX003 (ip), vehicle: Klucel (hydroxypropylcellulose) (HPC)
[15] = dose: 100.0 mg/kg/injection, schedule: Q01DX001 (ip), vehicle: carboxymethylcellulose (CMC)
[16] = dose: 200.0 mg/kg/injection, schedule: Q01DX001 (ip), vehicle: carboxymethylcellulose (CMC)
[17] = dose: 400.0 mg/kg/injection, schedule: Q01DX001 (ip), vehicle: carboxymethylcellulose (CMC)
[18] = dose: 100.0 mg/kg/injection, schedule: Q01DX009 (ip), vehicle: saline with Tween-80
[19] = dose: 200.0 mg/kg/injection, schedule: Q01DX009 (ip), vehicle: saline with Tween-80
[20] = dose: 400.0 mg/kg/injection, schedule: Q01DX009 (ip), vehicle: saline with Tween-80
[21] = dose: 50.0 mg/kg/injection, schedule: Q01DX001 (ip), vehicle: carboxymethylcellulose (CMC)
[22] = dose: 100.0 mg/kg/injection, schedule: Q04DX002 (ip), vehicle: Klucel (hydroxypropylcellulose) (HPC)
[23] = dose: 200.0 mg/kg/injection, schedule: Q04DX002 (ip), vehicle: Klucel (hydroxypropylcellulose) (HPC)
[24] = dose: 400.0 mg/kg/injection, schedule: Q04DX002 (ip), vehicle: Klucel (hydroxypropylcellulose) (HPC)
[25] = dose: 100.0 mg/kg/injection, schedule: Q01DX001 (ip), vehicle: Klucel (hydroxypropylcellulose) (HPC)
[26] = dose: 100.0 mg/kg/injection, schedule: Q01DX009 (ip), vehicle: Klucel (hydroxypropylcellulose) (HPC)
[27] = dose: 200.0 mg/kg/injection, schedule: Q01DX001 (ip), vehicle: Klucel (hydroxypropylcellulose) (HPC)
[28] = dose: 200.0 mg/kg/injection, schedule: Q01DX009 (ip), vehicle: Klucel (hydroxypropylcellulose) (HPC)
[29] = dose: 400.0 mg/kg/injection, schedule: Q01DX001 (ip), vehicle: Klucel (hydroxypropylcellulose) (HPC)
[30] = dose: 400.0 mg/kg/injection, schedule: Q01DX009 (ip), vehicle: Klucel (hydroxypropylcellulose) (HPC)
[31] = dose: 100.0 mg/kg/injection, schedule: Q01DX009 (ip), vehicle: saline

Measured: T/C

C/C=C(\Br)C(=O)Nc1ccc(OCC)cc1
inactive: [1] 100 % of control | [2] 105 % of control

C(=NCc1ccccc1)C1(c2ccccc2)OC1c1ccccc1 (stereo not drawn)
inactive: [3] 91 % of control | [4] 87 % of control | [5] 88 % of control

N#CC(C#N)=C1Cc2ccccc2C1
inactive: dose: 50.0 mg/kg/injection, schedule: Q04DX003 (ip), vehicle: saline with Tween-80 109 % of control | [6] 109 % of control

O=C(O)C(Cl)Cl
inactive: [7] 98 % of control | [8] 93 % of control

O=C(Nc1ccc(F)c(Cl)c1)Oc1ccc(OCc2ccccc2)cc1
inactive: [3] 94 % of control | [4] 94 % of control | [5] 95 % of control

OC1C2CCC(C2)C1C(O)(C(F)(F)Cl)C(F)(F)Cl (stereo not drawn)
inactive: [6] 93 % of control | [9] 92 % of control | [10] 97 % of control

CC([NH-])C[NH-].[Cl][Pd][Cl] (stereo not drawn)
inactive: dose: 6.25 mg/kg/injection, schedule: Q04DX002 (ip), vehicle: Klucel (hydroxypropylcellulose) (HPC) 93 % of control | dose: 12.5 mg/kg/injection, schedule: Q04DX002 (ip), vehicle: Klucel (hydroxypropylcellulose) (HPC) 102 % of control and 93 % of control | dose: 12.5 mg/kg/injection, schedule: Q04DX003 (ip), vehicle: Klucel (hydroxypropylcellulose) (HPC) 96 % of control | [11] 90 % of control | [12] 94 % of control | [13] 90 % of control | [14] 91 % of control

O=C(O)/C=C/c1ccc(C(NC(=O)N2C(=O)C=CC2=O)NC(=O)N2C(=O)C=CC2=O)cc1
inactive: [15] 100 % of control | [16] 95 % of control | [17] 97 % of control

ClCCOCc1ccccc1
inactive: [3] 102 % of control | [4] 100 % of control | [5] 98 % of control

O=C(CCCCl)Oc1ccccc1
inactive: [18] 103 % of control | [19] 98 % of control

NNC(=O)CCC(=O)NN
inactive: [18] 100 % of control | [19] 99 % of control | [20] 100 % of control

CCCCCCCCCCCCCCCC(=O)N(c1ccc(NC(=O)Nc2ccc(N(C(=O)CCCCCCCCCCCCCCC)C(C)CCCN(CC)CC)cc2)cc1)C(C)CCCN(CC)CC (stereo not drawn)
inactive: [18] 90 % of control | [19] 92 % of control | [20] 97 % of control

CCOP(=O)(Nc1ccc2c(c1)C(O)c1ccccc1-2)OCC (stereo not drawn)
inactive: [21] 100 % of control | [15] 94 % of control | [16] 103 % of control | [17] 103 % of control

O=C1c2ccccc2C(=O)N1c1ccccc1O
inactive: [22] 98 % of control | [23] 102 % of control | [24] 106 % of control

CC(=O)Oc1c(C)cc([N+](=O)[O-])cc1[N+](=O)[O-]
inactive: [12] 91 % of control | [14] 86 % of control

CC(=O)Nc1ccc(OCCOC(=O)Nc2ccc(C)c([N+](=O)[O-])c2)cc1
inactive: dose: 50.0 mg/kg/injection, schedule: Q01DX009 (ip), vehicle: saline with Tween-80 87 % of control | [19] 87 % of control

O=C(NC1CCCCC1)C1COc2ccccc2O1 (stereo not drawn)
inactive: [25] 98 % of control | [26] 95 % of control | [27] 108 % of control | [28] 93 % of control | [29] 98 % of control | [30] 97 % of control

Nc1ncnc(N)c1NC(=O)c1cccc(F)c1
inactive: dose: 100.0 mg/kg/injection, schedule: Q01DX001 (ip), vehicle: saline with Tween-80 106 % of control | dose: 200.0 mg/kg/injection, schedule: Q01DX001 (ip), vehicle: saline with Tween-80 101 % of control | dose: 400.0 mg/kg/injection, schedule: Q01DX001 (ip), vehicle: saline with Tween-80 102 % of control

Cc1cc(C)c2c(c1)CC2NC(=O)c1ccccc1 (stereo not drawn)
inactive: [11] 100 % of control | [13] 106 % of control | [22] 95 % of control

COc1cc(C(=O)N(C)OC)cc(OC)c1OC
inactive: [15] 96 % of control | [16] 91 % of control | [17] 100 % of control

C[Si](C)(C)OCCCCCCCl
inactive: [21] 108 % of control | [15] 101 % of control | [16] 95 % of control | [17] 103 % of control

CC(=O)N(C(C)=O)c1ccc(C)cc1
inactive: [31] 109 % of control | [7] 95 % of control | dose: 200.0 mg/kg/injection, schedule: Q01DX009 (ip), vehicle: saline 112 % of control | [8] 108 % of control | dose: 400.0 mg/kg/injection, schedule: Q04DX003 (ip), vehicle: saline 103 % of control

COc1ccc(COc2ccc(OC)cc2)cc1
inactive: [6] 95 % of control | [9] 96 % of control | [10] 98 % of control

NNC(=O)c1cccnc1
inactive: dose: 12.5 mg/kg/injection, schedule: Q01DX009 (ip), vehicle: saline 94 % of control | dose: 25.0 mg/kg/injection, schedule: Q01DX001 (ip), vehicle: saline 100 % of control | dose: 25.0 mg/kg/injection, schedule: Q01DX009 (ip), vehicle: saline 104 % of control | dose: 50.0 mg/kg/injection, schedule: Q01DX001 (ip), vehicle: saline 105 % of control | dose: 50.0 mg/kg/injection, schedule: Q01DX009 (ip), vehicle: saline 98 % of control | [1] 102 % of control and 104 % of control | [31] 105 % of control

CCOc1ccc(NC(=O)N/N=C(\C)CC(C)C)cc1
inactive: [25] 93 % of control | [26] 99 % of control and 102 % of control | [22] 95 % of control and 89 % of control | [27] 89 % of control | [28] 96 % of control and 101 % of control | [23] 103 % of control and 110 % of control | [29] 91 % of control | [30] 95 % of control and 102 % of control | [24] 104 % of control and 92 % of control

NC(=S)NS(=O)(=O)c1ccc(N)cc1
inactive: dose: 89.0 mg/kg/injection, schedule: Q01DX001 (ip), vehicle: saline 97 % of control and 98 % of control | [1] 104 % of control | dose: 133.0 mg/kg/injection, schedule: Q01DX001 (ip), vehicle: saline 98 % of control and 104 % of control | [2] 96 % of control and 92 % of control | dose: 300.0 mg/kg/injection, schedule: Q01DX001 (ip), vehicle: saline 93 % of control and 102 % of control | dose: 400.0 mg/kg/injection, schedule: Q01DX001 (ip), vehicle: saline 98 % of control

O=C(O)c1cc(CBr)cc(CBr)c1
inactive: dose: 3.13 mg/kg/injection, schedule: Q01DX009 (ip), vehicle: saline with Tween-80 97 % of control | dose: 6.25 mg/kg/injection, schedule: Q01DX001 (ip), vehicle: saline with Tween-80 102 % of control | dose: 6.25 mg/kg/injection, schedule: Q01DX009 (ip), vehicle: saline with Tween-80 101 % of control | dose: 12.5 mg/kg/injection, schedule: Q01DX001 (ip), vehicle: saline with Tween-80 113 % of control

C[N+](C)(CCCN1C(=O)c2cccc3c(Br)ccc(c23)C1=O)Cc1ccc(Cl)c(Cl)c1
inactive: dose: 100.0 mg/kg/injection, schedule: Q01DX001 (ip), vehicle: other 98 % of control | dose: 200.0 mg/kg/injection, schedule: Q01DX001 (ip), vehicle: other 96 % of control | dose: 400.0 mg/kg/injection, schedule: Q01DX001 (ip), vehicle: other 93 % of control
